The numbers were not newly measured in patent publication US10751328B2, “Therapy for chronic idiopathic urticaria, anaphylaxis and angioedema” (priority 2013, dated 2020), which cites them from elsewhere.

Data set [1] deals with white blood cell counts (eosinophil, basophils). The conditions noted are these: ALS subjects, 150 mg twice daily up to 18 months, monthly CBCs; FIGS. 1 to 4 (prior art poster).
Another data set has as its system wheal and flare reaction. Particulars: versus histamine.
For data set [2] the following is noted: dihydrochloride monohydrate salt, crystalline.
For data set [3], the system named is chronic idiopathic urticaria symptoms. Particulars: patients with chronic idiopathic urticaria symptomatic despite approved doses of H1-antihistamines; 139 patients.

On to `CCCN[C@@H]1CCc2nc(N)sc2C1` [Dexpramipexole, (6R)-4,5,6,7-tetrahydro-N6-propyl-2,6 benzothiazole diamine], for which the “effect on white blood cell counts” value in data set [1] was “reduce white blood cell counts, especially eosinophil and basophils”.
For the compound `CCCCC/C=C\C\C=C/C=C/C=C/[C@@H](SC[C@H](NC(=O)CC[C@H](N)C(=O)O)C(=O)NCC(=O)O)[C@@H](O)CCCC(=O)O` [LTC4, leukotriene C4], the “potency relative to histamine in causing wheal and flare reaction” value in the data set with wheal and flare reaction is “about 1,000 times”.
Consider `CCCN[C@H]1CCc2nc(N)sc2C1` [pramipexole, (6S)-2-amino-4,5,6,7-tetrahydro-6-(propylamino)benzothiazole], for which the solubility in water result in data set [2] was “extremely well soluble in water”.
Consider “omalizumab: agent effective in chronic idiopathic urticaria through its reduction of FcεRI function in basophils and mast cells”, for which the effect on symptoms entry in data set [3] is on record as “beneficial effects on symptoms”.
